Measurements reported in patent publication US11691962B2 (eXIthera Pharmaceuticals, Inc., priority 2018, dated 2023).
Read-outs that look alike come from different tables or passages of the source.

Columns and labels:
[1] = Aqueous solubility in PBS by HPLC-UV/VIS; format: physicochemical; conditions: phosphate buffered saline, aqueous buffer, kinetic from dmso stock; PBS pH 7.4, 2% DMSO, 24 h at room temperature
In short: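 Compound diluted to 200 μM in PBS pH 7.4 from DMSO stock (2% DMSO final), incubated 24 h at room temperature, then centrifuged. Supernatant analysed by HPLC-UV/VIS; solubility (μM) from principal-peak area versus a 200 μM calibration standard. Range approximately 0.5–200 μM.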

[2] = Plasma protein binding by equilibrium dialysis; format: in vitro ADME; conditions: pH 7.4, pooled human plasma, 4 hours at 37° C., read-out: PPB (%)
In short: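 Pooled mixed-gender human plasma spiked with compound at 10 μM was dialysed against PBS pH 7.4 for 4 h at 37°C. Both compartments were quantified by HPLC-MS/MS, and % bound was calculated from plasma vs buffer peak areas.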

Trypsin = assay: Dose response assay for protease inhibitors: trypsin; format: biochemical; conditions: selectivity, trypsin over Factor XIa
In short: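 Glp-Pro-Arg-AMC substrate (thrombin, trypsin) or Pro-Phe-Arg-AMC/Boc-Leu-Gly-Arg-AMC (Factor Xa), diluted to 100 μM, in 20 mM Hepes pH 7.4, 150 mM NaCl, 0.02% Tween 20; enzyme diluted to 0.5 nM before addition. Two-fold serial compound dilutions; kinetic reads at 30° C. Data yield IC50 and Kon.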

[3] = Metabolic stability in dog hepatocytes; format: in vitro ADME; conditions: pooled cryopreserved hepatocytes; beagle dog hepatocytes, 2 μM compound; read-out: Dog Hepatocyte Stability (t1/2)
Procedure: The following procedure was used to determine the stability of test compounds in beagle dog hepatocytes in a 96-well plate format. The test compounds, including the controls, imipramine and 7-ethoxycoumarin, were dissolved at 10 mM in DMSO, followed by further 5-fold dilution with DMSO to 2 mM. Pooled cryopreserved beagle dog hepatocytes were thawed and transferred into complete medium. Cells were gently centrifuged (700 rpm for 5 min) and the pellet rinsed with KHB (Krebs Henseleit buffer). Cells were resuspended, counted using Trypan blue, and adjusted to 1 million cells/mL in KHB buffer. The 2 mM compound stock solutions were diluted 10-fold with acetonitrile, followed by a further 50-fold dilution with KHB buffer. 200 μL of these compound solutions were transferred to 96-well polypropylene assay plates and an equal volume of the hepatocyte solution was added and mixed to initiate the reaction (final assay concentrations were 2 μM compound and 500,000 cells/mL). Assay plates were incubated at 37° C. in 5% CO2 with gentle agitation. 50 μL aliquots were removed at multiple time points out to 180 minutes and quenched with 6 volumes of cold acetonitrile (containing 250 ng/mL of carbutamide and chrysin as internal standards) to terminate the reaction and precipitate protein. Quenched samples were maintained on ice. The quenched samples were centrifuged at 2000×g (3100 rpm) for 10 minutes at 4° C. 50 μL aliquots of the supernatants were removed and diluted with 100 μL Milli-Q water to reduce the % organic content prior to bioanalysis by LC-MS/MS. Peak areas corresponding to the test compound were recorded. The compound remaining was calculated by comparing the peak area at each time point to time zero. Data were analyzed and results were calculated using Microsoft Excel 2010.

In the case of `CN(C(=O)[C@@H]1[C@@H](Cc2ccnc(N)c2)C(=O)N1C(=O)N[C@@H](C1CCCCC1)C1CC1)c1ccn(C)n1` [Compound 1-58, (2S,3R)-3-((2-aminopyridin-4-yl)methyl)-N2-(1-methyl-1H-pyrazol-3-yl)-N1-((R)-cyclohexyl-cyclopropylmethyl)-N2-methyl-4-oxoazetidine-1,2-dicarboxamide], the solubility at 24 h [1] is reported as greater than 100 µM, the fraction unbound at 4 h, 10 μM ([2]; both sexes) is reported as 0.05 to 0.09 and the “Ratio: Trypsin/FXIa” value (Trypsin) is reported as “G (“G” indicates 1-100)”. The half-life at 2 μM [3] was less than 60 min.
For `CC[C@@H](NC(=O)N1C(=O)[C@H](Cc2ccnc(N)c2)[C@H]1C(=O)N(C)c1ccn(C)n1)c1ccccc1` [Compound 1-3, (2S,3R)-3-((2-aminopyridin-4-yl)methyl)-N2-(1-methyl-1H-pyrazol-3-yl)-N1-((R)-1-phenylpropyl)-N2-methyl-4-oxoazetidine-1,2-dicarboxamide], the solubility at 24 h [1] was greater than 100 µM, the fraction unbound at 4 h, 10 μM ([2]; both sexes) was 0.1 to 0.5 and the “Ratio: Trypsin/FXIa” value (Trypsin) was “G (“G” indicates 1-100)”. It also gave a half-life at 2 μM [3] greater than 240 min.
In the case of `CC[C@@H](NC(=O)N1C(=O)[C@H](Cc2ccnc(N)c2)[C@H]1C(=O)N(C)c1cscn1)c1ccccc1` [Compound 1-8, (2S,3R)-3-((2-aminopyridin-4-yl)methyl)-N2-(4-thiazolyl)-N1-((R)-1-phenylpropyl)-N2-methyl-4-oxoazetidine-1,2-dicarboxamide], the solubility at 24 h [1] is reported as greater than 100 µM, the fraction unbound at 4 h, 10 μM ([2]; both sexes) is reported as 0.1 to 0.5 and the “Ratio: Trypsin/FXIa” value (Trypsin) is reported as “G (“G” indicates 1-100)”. For the same molecule, the half-life at 2 μM [3] was greater than 240 min.
For `CC[C@@H](NC(=O)N1C(=O)[C@H](Cc2cc(C)nc(NC)c2)[C@H]1C(=O)N(C)c1ccnn1C)C1CCCCC1` [Compound 1-62, (2S,3R)-3-((2-methylamino-6-methylpyridin-4-yl)methyl)-N2-(1-methyl-1H-pyrazol-5-yl)-N1-((R)-1-cyclohexylpropyl)-N2-methyl-4-oxoazetidine-1,2-dicarboxamide], the solubility at 24 h [1] was greater than 100 µM, the fraction unbound at 4 h, 10 μM ([2]; both sexes) was 0.1 to 0.5 and the “Ratio: Trypsin/FXIa” value (Trypsin) was “G (“G” indicates 1-100)”. It also gave a half-life at 2 μM [3] of less than 60 min.
With `CC[C@@H](NC(=O)N1C(=O)[C@H](Cc2cc(C)nc(N)c2)[C@H]1C(=O)N(C)c1ccn(C)n1)c1cccc(Cl)c1` [Compound 1-89, (2S,3R)-3-((2-amino-6-methylpyridin-4-yl)methyl)-N2-(1-methyl-1H-pyrazol-3-yl)-N1-((R)-1-(3-chlorophenyl)propyl)-N2-methyl-4-oxoazetidine-1,2-dicarboxamide] the solubility at 24 h [1] was greater than 100 µM, the fraction unbound at 4 h, 10 μM ([2]; both sexes) was 0.1 to 0.5 and the “Ratio: Trypsin/FXIa” value (Trypsin) was “G (“G” indicates 1-100)”. It also gave a half-life at 2 μM [3] greater than 240 min.
In the case of `CC[C@@H](NC(=O)N1C(=O)[C@H](Cc2ccnc(N)c2)[C@H]1C(=O)N(C)c1nccn1C)c1ccccc1Cl` [Compound 1-83], the solubility at 24 h [1] is reported as greater than 100 µM, the fraction unbound at 4 h, 10 μM ([2]; both) is reported as 0.05 to 0.09 and the “Ratio: Trypsin/FXIa” value (Trypsin) is reported as “G (“G” indicates 1-100)”. The half-life at 2 μM [3] was 121 to 240 min.
For `CC[C@@H](NC(=O)N1C(=O)[C@H](Cc2ccnc(N)c2)[C@H]1C(=O)N(C)c1ccn(C)n1)c1cccc(Cl)c1` [Compound 1-91, (2S,3R)-3-((2-aminopyridin-4-yl)methyl)-N2-(1-methyl-1H-pyrazol-3-yl)-N1-((R)-1-(3-chlorophenyl)propyl)-N2-methyl-4-oxoazetidine-1,2-dicarboxamide], the solubility at 24 h [1] was greater than 100 µM, the fraction unbound at 4 h, 10 μM ([2]; both sexes) was 0.1 to 0.5 and the “Ratio: Trypsin/FXIa” value (Trypsin) was “G (“G” indicates 1-100)”. For the same molecule, the half-life at 2 μM [3] was 61 to 120 min.
In the case of `CC[C@@H](NC(=O)N1C(=O)[C@H](Cc2cc(C)nc(N)c2)[C@H]1C(=O)N(C)c1ccnn1C)C1CCCCC1` [Compound 1-67, (2S,3R)-3-((2-amino-6-methylpyridin-4-yl)methyl)-N2-(1-methyl-1H-pyrazol-5-yl)-N1-((R)-1-cyclohexylpropyl)-N2-methyl-4-oxoazetidine-1,2-dicarboxamide], the solubility at 24 h [1] is reported as greater than 100 µM, the fraction unbound at 4 h, 10 μM ([2]; both sexes) is reported as 0.1 to 0.5 and the “Ratio: Trypsin/FXIa” value (Trypsin) is reported as “G (“G” indicates 1-100)”. It also gave a half-life at 2 μM [3] of 61 to 120 min.
For `CC[C@@H](NC(=O)N1C(=O)[C@H](Cc2ccnc(N)c2)[C@H]1C(=O)N(C)c1ccnn1C)c1cccc(Cl)c1` [Compound 1-4, (2S,3R)-3-((2-aminopyridin-4-yl)methyl)-N2-(1-methyl-1H-pyrazol-5-yl)-N1-((R)-1-(3-chlorophenyl)propyl)-N2-methyl-4-oxoazetidine-1,2-dicarboxamide], the solubility at 24 h [1] was greater than 100 µM, the fraction unbound at 4 h, 10 μM ([2]; both sexes) was 0.1 to 0.5 and the “Ratio: Trypsin/FXIa” value (Trypsin) was “G (“G” indicates 1-100)”. The half-life at 2 μM [3] was 61 to 120 min.
For `CC[C@@H](NC(=O)N1C(=O)[C@H](Cc2cc(C)nc(N)c2)[C@H]1C(=O)N(C)c1nccn1C)c1cc(F)ccc1F` [Compound 1-137, (2S,3R)-3-((2-amino-6-methylpyridin-4-yl)methyl)-N2-(1-methyl-1H-imidazol-2-yl)-N1-((R)-1-(2,5-difluorophenyl)propyl)-N2-methyl-4-oxoazetidine-1,2-dicarboxamide], the solubility at 24 h [1] was greater than 100 µM, the fraction unbound at 4 h, 10 μM ([2]; both sexes) was 0.05 to 0.09 and the “Ratio: Trypsin/FXIa” value (Trypsin) was “G (“G” indicates 1-100)”. It also gave a half-life at 2 μM [3] greater than 240 min.
In the case of `CC[C@@H](NC(=O)N1C(=O)[C@H](Cc2cc(C)nc(N)c2)[C@H]1C(=O)N(C)c1nccn1C)c1cccc(Cl)c1` [Compound 1-43, (2S,3R)-3-((2-amino-6-methylpyridin-4-yl)methyl)-N2-(1-methyl-1H-imidazol-2-yl)-N1-((R)-1-(3-chlorophenyl)propyl)-N2-methyl-4-oxoazetidine-1,2-dicarboxamide], the solubility at 24 h [1] is reported as greater than 100 µM, the fraction unbound at 4 h, 10 μM ([2]; both sexes) is reported as 0.1 to 0.5 and the “Ratio: Trypsin/FXIa” value (Trypsin) is reported as “G (“G” indicates 1-100)”. For the same molecule, the half-life at 2 μM [3] was 121 to 240 min.
With `CC[C@@H](NC(=O)N1C(=O)[C@H](Cc2ccnc(N)c2)[C@H]1C(=O)N(C)c1nccn1C)C1CCCCC1` [Compound 1-55, (2S,3R)-3-((2-aminopyridin-4-yl)methyl)-N2-(1-methyl-1H-imidazol-2-yl)-N1-((R)-1-cyclohexylpropyl)-N2-methyl-4-oxoazetidine-1,2-dicarboxamide] the solubility at 24 h [1] was greater than 100 µM, the fraction unbound at 4 h, 10 μM ([2]; both sexes) was 0.1 to 0.5 and the “Ratio: Trypsin/FXIa” value (Trypsin) was “G (“G” indicates 1-100)”. The half-life at 2 μM [3] was 61 to 120 min.
With `CC[C@@H](NC(=O)N1C(=O)[C@H](Cc2ccnc(N)c2)[C@H]1C(=O)N(C)c1cn(C)cn1)c1ccccc1` [Compound 1-90, (2S,3R)-3-((2-aminopyridin-4-yl)methyl)-N2-(1-methyl-1H-imidazol-4-yl)-N1-((R)-1-phenylpropyl)-N2-methyl-4-oxoazetidine-1,2-dicarboxamide] the solubility at 24 h [1] was greater than 100 µM, the fraction unbound at 4 h, 10 μM ([2]; both sexes) was 0.1 to 0.5 and the “Ratio: Trypsin/FXIa” value (Trypsin) was “G (“G” indicates 1-100)”. The half-life at 2 μM [3] was 121 to 240 min.
In the case of `CC[C@@H](NC(=O)N1C(=O)[C@H](Cc2cc(C)nc(N)c2)[C@H]1C(=O)N(C)c1ccnn1C)c1ccc(C)c(C)c1` [Compound 1-152, (2S,3R)-3-((2-amino-6-methylpyridin-4-yl)methyl)-N2-(1-methyl-1H-pyrazol-5-yl)-N1-((R)-1-(3,4-dimethylphenyl)propyl)-N2-methyl-4-oxoazetidine-1,2-dicarboxamide], the solubility at 24 h [1] is reported as greater than 100 µM, the fraction unbound at 4 h, 10 μM ([2]; both sexes) is reported as 0.1 to 0.5 and the “Ratio: Trypsin/FXIa” value (Trypsin) is reported as “G (“G” indicates 1-100)”. It also gave a half-life at 2 μM [3] of 61 to 120 min.
In the case of `CC[C@@H](NC(=O)N1C(=O)[C@H](Cc2ccnc(N)c2)[C@H]1C(=O)N(C)c1nccn1C)c1ccc(C)nc1` [Compound 1-81, (2S,3R)-3-((2-aminopyridin-4-yl)methyl)-N2-(1-methyl-1H-imidazol-2-yl)-N1-((R)-1-(6-methylpyridin-3-yl)propyl)-N2-methyl-4-oxoazetidine-1,2-dicarboxamide], the solubility at 24 h [1] is reported as greater than 100 µM, the fraction unbound at 4 h, 10 μM ([2]; both sexes) is reported as less than 0.5 and the “Ratio: Trypsin/FXIa” value (Trypsin) is reported as “G (“G” indicates 1-100)”. The half-life at 2 μM [3] was 121 to 240 min.
With `CC[C@@H](NC(=O)N1C(=O)[C@H](Cc2ccnc(N)c2)[C@H]1C(=O)N(C)c1cnn(C)c1)c1ccc(C)nc1` [Compound 1-18, (2S,3R)-3-((2-aminopyridin-4-yl)methyl)-N2-(1-methyl-1H-pyrazol-4-yl)-N1-((R)-1-(6-methylpyridin-3-yl)propyl)-N2-methyl-4-oxoazetidine-1,2-dicarboxamide] the solubility at 24 h [1] was greater than 100 µM, the fraction unbound at 4 h, 10 μM ([2]; both sexes) was less than 0.5 and the “Ratio: Trypsin/FXIa” value (Trypsin) was “G (“G” indicates 1-100)”. The half-life at 2 μM [3] was 121 to 240 min.
